Data as given in ChEMBL document CHEMBL3885881, “DrugMatrix”.

Species on record: Rattus norvegicus
Experiment: DrugMatrix - Regimen: Daily Repeat
Type: toxicity, organism-based, Sprague-Dawley
Design: regimen Daily Repeat, gender Male, age 6-8 weeks
Settings: in vivo, po, route oral GAVAGE, vehicle .5 % CMC; for BASOPHIL / EOSINOPHIL / ERYTHROCYTE COUNT / HEMATOCRIT / HEMOGLOBIN / LEUKOCYTE COUNT / LYMPHOCYTE / MEAN CORPUSCULAR HEMOGLOBIN / MEAN CORPUSCULAR HEMOGLOBIN CONCENTRATION / MEAN CORPUSCULAR VOLUME / NEUTROPHIL / PLATELET COUNT: tissue Blood; for ALANINE AMINOTRANSFERASE / ALBUMIN / ALKALINE PHOSPHATASE / ASPARTATE AMINOTRANSFERASE / BLOOD UREA NITROGEN / CHLORIDE / CHOLESTEROL / CREATINE PHOSPHOKINASE / CREATININE / GLUCOSE / PHOSPHORUS / POTASSIUM / SODIUM / TOTAL BILIRUBIN / TOTAL PROTEIN: tissue Plasma
[1] = 0 mg/kg, 72 h, dose level Control, time 3 day
[2] = 0 mg/kg, 120 h, dose level Control, time 5 day
[3] = 22 mg/kg, 72 h, dose level High, time 3 day
[4] = 22 mg/kg, 120 h, dose level High, time 5 day
[5] = […], 72 h, dose 2.4 mg/Kg, dose level Low, time 3 day
[6] = […], 120 h, dose 2.4 mg/Kg, dose level Low, time 5 day

Cc1nc2n(c(=O)c1CCN1CCC(c3noc4cc(F)ccc34)CC1)CCCC2 [RISPERIDONE]
BASOPHIL [1]: 0%
EOSINOPHIL [1]: 0%
ERYTHROCYTE COUNT [1]: 6.19 x10E6/uL
HEMATOCRIT [1]: 36.94%
HEMOGLOBIN [1]: 14.58 G/DL
LEUKOCYTE COUNT [1]: 11.54 x10E3/uL
LYMPHOCYTE [1]: 84.8%
MEAN CORPUSCULAR HEMOGLOBIN [1]: 23.58 pg
MEAN CORPUSCULAR HEMOGLOBIN CONCENTRATION [1]: 39.44 G/DL
MEAN CORPUSCULAR VOLUME [1]: 59.76 fL
NEUTROPHIL [1]: 13.8%
PLATELET COUNT [1]: 1068.8 x10E3/uL
ALANINE AMINOTRANSFERASE [1]: 38.17 u/L
ALBUMIN [1]: 3.88 G/DL
ALKALINE PHOSPHATASE [1]: 391.33 u/L
ASPARTATE AMINOTRANSFERASE [1]: 69.83 u/L
BLOOD UREA NITROGEN [1]: 15 mg/dL
CHLORIDE [1]: 104.17 MEQ/L
CHOLESTEROL [1]: 72.17 mg/dL
CREATINE PHOSPHOKINASE [1]: 174.33 u/L
CREATININE [1]: 0.58 mg/dL
GLUCOSE [1]: 192.67 mg/dL
PHOSPHORUS [1]: 10.52 mg/dL
POTASSIUM [1]: 6.8 MEQ/L
SODIUM [1]: 149.67 MEQ/L
TOTAL BILIRUBIN [1]: 0.78 mg/dL
TOTAL PROTEIN [1]: 6.28 G/DL
BASOPHIL [2]: 0%
EOSINOPHIL [2]: 0.17%
ERYTHROCYTE COUNT [2]: 6.72 x10E6/uL
HEMATOCRIT [2]: 40.02%
HEMOGLOBIN [2]: 15.83 G/DL
LEUKOCYTE COUNT [2]: 9.5 x10E3/uL
LYMPHOCYTE [2]: 87.17%
MEAN CORPUSCULAR HEMOGLOBIN [2]: 23.57 pg
MEAN CORPUSCULAR HEMOGLOBIN CONCENTRATION [2]: 39.62 G/DL
MEAN CORPUSCULAR VOLUME [2]: 59.55 fL
NEUTROPHIL [2]: 11%
PLATELET COUNT [2]: 1053.67 x10E3/uL
ALANINE AMINOTRANSFERASE [2]: 26.33 u/L
ALBUMIN [2]: 4.02 G/DL
ALKALINE PHOSPHATASE [2]: 316.67 u/L
ASPARTATE AMINOTRANSFERASE [2]: 61.33 u/L
BLOOD UREA NITROGEN [2]: 18.67 mg/dL
CHLORIDE [2]: 108 MEQ/L
CHOLESTEROL [2]: 65.17 mg/dL
CREATINE PHOSPHOKINASE [2]: 161.17 u/L
CREATININE [2]: 0.75 mg/dL
GLUCOSE [2]: 177.33 mg/dL
PHOSPHORUS [2]: 9.72 mg/dL
POTASSIUM [2]: 6.18 MEQ/L
SODIUM [2]: 150.5 MEQ/L
TOTAL BILIRUBIN [2]: 0.68 mg/dL
TOTAL PROTEIN [2]: 6.55 G/DL
BASOPHIL [3]: 0%
EOSINOPHIL [3]: 0%
ERYTHROCYTE COUNT [3]: 6.13 x10E6/uL
HEMATOCRIT [3]: 38.1%
HEMOGLOBIN [3]: 15.27 G/DL
LEUKOCYTE COUNT [3]: 13.67 x10E3/uL
LYMPHOCYTE [3]: 90%
MEAN CORPUSCULAR HEMOGLOBIN [3]: 24.93 pg
MEAN CORPUSCULAR HEMOGLOBIN CONCENTRATION [3]: 40.1 G/DL
MEAN CORPUSCULAR VOLUME [3]: 62.17 fL
NEUTROPHIL [3]: 7.67%
PLATELET COUNT [3]: 999.33 x10E3/uL
ALANINE AMINOTRANSFERASE [3]: 31.33 u/L
ALBUMIN [3]: 3.77 G/DL
ALKALINE PHOSPHATASE [3]: 390.33 u/L
ASPARTATE AMINOTRANSFERASE [3]: 54 u/L
BLOOD UREA NITROGEN [3]: 13.67 mg/dL
CHLORIDE [3]: 103.67 MEQ/L
CHOLESTEROL [3]: 59 mg/dL
CREATINE PHOSPHOKINASE [3]: 158.67 u/L
CREATININE [3]: 0.6 mg/dL
GLUCOSE [3]: 179 mg/dL
PHOSPHORUS [3]: 10.93 mg/dL
POTASSIUM [3]: 6.37 MEQ/L
SODIUM [3]: 148.67 MEQ/L
TOTAL BILIRUBIN [3]: 0.6 mg/dL
TOTAL PROTEIN [3]: 5.97 G/DL
BASOPHIL [4]: 0%
EOSINOPHIL [4]: 0.33%
ERYTHROCYTE COUNT [4]: 6.82 x10E6/uL
HEMATOCRIT [4]: 40.93%
HEMOGLOBIN [4]: 16.13 G/DL
LEUKOCYTE COUNT [4]: 11.33 x10E3/uL
LYMPHOCYTE [4]: 91.67%
MEAN CORPUSCULAR HEMOGLOBIN [4]: 23.67 pg
MEAN CORPUSCULAR HEMOGLOBIN CONCENTRATION [4]: 39.47 G/DL
MEAN CORPUSCULAR VOLUME [4]: 60 fL
NEUTROPHIL [4]: 6.67%
PLATELET COUNT [4]: 1104.33 x10E3/uL
ALANINE AMINOTRANSFERASE [4]: 28.33 u/L
ALBUMIN [4]: 4.03 G/DL
ALKALINE PHOSPHATASE [4]: 320.33 u/L
ASPARTATE AMINOTRANSFERASE [4]: 53.33 u/L
BLOOD UREA NITROGEN [4]: 15.33 mg/dL
CHLORIDE [4]: 106 MEQ/L
CHOLESTEROL [4]: 70 mg/dL
CREATINE PHOSPHOKINASE [4]: 145.33 u/L
CREATININE [4]: 0.63 mg/dL
GLUCOSE [4]: 170.67 mg/dL
PHOSPHORUS [4]: 10.97 mg/dL
POTASSIUM [4]: 6.6 MEQ/L
SODIUM [4]: 151.67 MEQ/L
TOTAL BILIRUBIN [4]: 0.7 mg/dL
TOTAL PROTEIN [4]: 6.6 G/DL
BASOPHIL [5]: 0%
EOSINOPHIL [5]: 0%
ERYTHROCYTE COUNT [5]: 5.99 x10E6/uL
HEMATOCRIT [5]: 36.13%
HEMOGLOBIN [5]: 14.37 G/DL
LEUKOCYTE COUNT [5]: 11.03 x10E3/uL
LYMPHOCYTE [5]: 90%
MEAN CORPUSCULAR HEMOGLOBIN [5]: 23.97 pg
MEAN CORPUSCULAR HEMOGLOBIN CONCENTRATION [5]: 39.77 G/DL
MEAN CORPUSCULAR VOLUME [5]: 60.27 fL
NEUTROPHIL [5]: 9%
PLATELET COUNT [5]: 1243 x10E3/uL
ALANINE AMINOTRANSFERASE [5]: 32 u/L
ALBUMIN [5]: 3.73 G/DL
ALKALINE PHOSPHATASE [5]: 332.67 u/L
ASPARTATE AMINOTRANSFERASE [5]: 58 u/L
BLOOD UREA NITROGEN [5]: 11.33 mg/dL
CHLORIDE [5]: 103.67 MEQ/L
CHOLESTEROL [5]: 65.67 mg/dL
CREATINE PHOSPHOKINASE [5]: 164.67 u/L
CREATININE [5]: 0.6 mg/dL
GLUCOSE [5]: 180.67 mg/dL
PHOSPHORUS [5]: 11.33 mg/dL
POTASSIUM [5]: 6.43 MEQ/L
SODIUM [5]: 148.33 MEQ/L
TOTAL BILIRUBIN [5]: 0.4 mg/dL
TOTAL PROTEIN [5]: 5.8 G/DL
BASOPHIL [6]: 0%
EOSINOPHIL [6]: 0.67%
ERYTHROCYTE COUNT [6]: 6.09 x10E6/uL
HEMATOCRIT [6]: 37.37%
HEMOGLOBIN [6]: 14.97 G/DL
LEUKOCYTE COUNT [6]: 13.13 x10E3/uL
LYMPHOCYTE [6]: 81.67%
MEAN CORPUSCULAR HEMOGLOBIN [6]: 24.6 pg
MEAN CORPUSCULAR HEMOGLOBIN CONCENTRATION [6]: 40.1 G/DL
MEAN CORPUSCULAR VOLUME [6]: 61.4 fL
NEUTROPHIL [6]: 13%
PLATELET COUNT [6]: 1107.33 x10E3/uL
ALANINE AMINOTRANSFERASE [6]: 33.33 u/L
ALBUMIN [6]: 3.8 G/DL
ALKALINE PHOSPHATASE [6]: 344.67 u/L
ASPARTATE AMINOTRANSFERASE [6]: 57.33 u/L
BLOOD UREA NITROGEN [6]: 15.67 mg/dL
CHLORIDE [6]: 102 MEQ/L
CHOLESTEROL [6]: 70.33 mg/dL
CREATINE PHOSPHOKINASE [6]: 148.33 u/L
CREATININE [6]: 0.53 mg/dL
GLUCOSE [6]: 178.67 mg/dL
PHOSPHORUS [6]: 10.7 mg/dL
POTASSIUM [6]: 6.43 MEQ/L
SODIUM [6]: 148.33 MEQ/L
TOTAL BILIRUBIN [6]: 0.47 mg/dL
TOTAL PROTEIN [6]: 6.07 G/DL
